Where two headings read alike, the source gives them in different places.
What was measured:
[1] = tested on: adrenocortical steroid synthesis; test: ACTH-stimulation test in dexamethasone-suppressed rats, plasma adrenocortical steroids by ELISA; settings: for inhibition of adrenocortical steroid synthesis (FIG. 10): rats, 3 mg/kg IV dose
Method: Briefly, rats were pretreated with dexamethasone (0.2 mg/kg intravenously) to reduce endogenous ACTH production and minimize baseline adrenocortical steroid concentrations. Two hours later and after receiving a second dexamethasone dose, rats received ACTH1-24 (IV) and the desired dose of either etomidate or dimethoxy-etomidate solubilized in water containing a 1:1 molar ratio of Captisol (Ligand Pharmaceuticals, San Diego, Calif.) or water containing Captisol vehicle alone as a control. Fifteen minutes later, a blood sample was drawn and ACTH-stimulated adrenocortical steroid concentrations in the plasma were determined using enzyme-linked immunosorbent assays and a 96-well plate reader (Molecular Devices, Sunnyvale, Calif.).

[2] = biological target: T1, 11β-hydroxylase (Homo sapiens, UniProt P15538); settings: previously reported work; cited from earlier work
T1 sequence (P15538 25-503): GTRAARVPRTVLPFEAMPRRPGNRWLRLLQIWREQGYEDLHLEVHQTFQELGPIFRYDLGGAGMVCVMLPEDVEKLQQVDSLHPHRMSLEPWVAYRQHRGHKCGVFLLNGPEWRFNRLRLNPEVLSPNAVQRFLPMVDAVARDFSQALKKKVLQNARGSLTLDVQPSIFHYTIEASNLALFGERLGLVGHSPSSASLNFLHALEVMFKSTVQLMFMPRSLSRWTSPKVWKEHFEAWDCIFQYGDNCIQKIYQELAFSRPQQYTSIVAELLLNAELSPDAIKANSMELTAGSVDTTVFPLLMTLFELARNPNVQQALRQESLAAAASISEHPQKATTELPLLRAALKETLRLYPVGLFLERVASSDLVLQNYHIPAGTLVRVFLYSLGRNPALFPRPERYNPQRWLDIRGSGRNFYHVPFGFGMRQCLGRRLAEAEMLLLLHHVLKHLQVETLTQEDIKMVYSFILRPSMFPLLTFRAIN

[3] = tested on: Sprague-Dawley rats; test: Loss of righting reflexes (LORR) assay, sedative-hypnotic activity; settings: for ED50: Rattus norvegicus, iv, read-out: ED50 for loss of righting reflexes; for dose producing loss of righting reflexes in all rats: IV
Method: Briefly, the desired dose of drug in dimethyl sulfoxide vehicle (0.1-0.3 mL) was rapidly (<5 s) injected through a 24-gauge intravenous catheter placed in a tail vein. This was followed by a 0.5-mL normal saline flush. Immediately after injection, rats were turned supine. […] The duration of LORR was defined as the time from drug injection until the animal spontaneously righted itself onto all four legs.

[4] = biological target: T2, α1β3γ2L GABAA receptor (Homo sapiens, UniProt P14867+P28472); test: GABAA receptor electrophysiology, potentiation of EC5 GABA-evoked currents in Xenopus oocytes; assay type: cell-based; settings: for maximum peak current at high drug concentrations, % of that produced by 1 mM GABA: Hill fit, EC5 GABA + drug
T2 construct: expressed in transfected cells; host or cells: Xenopus oocytes injected with mRNA
Method: Oocytes were then incubated in ND96 buffer (96 mM NaCl, 2 mM KCl, 1.8 mM CaCl2, 1 mM MgCl2, 5 mM HEPES, pH=7.4) containing 0.05 mg/mL of gentamicin for 18 to 48 hours at 18° C. before electrophysiological study. […] For each oocyte, a GABA concentration-peak current response curve was generated to define the GABA concentration that elicits 5% of the current evoked by 1 mM GABA (i.e., EC5 GABA). The effect of drug (etomidate or dimethoxy-etomidate) was then defined in that oocyte by perfusing it with EC5 GABA alone for 15-20 s followed immediately by EC5 GABA+drug at the desired concentration for 20-60 s. The resulting current response was then recorded. The peak current response recorded in the presence of EC5 GABA+drug was then normalized to the peak current response evoked by 1 mM GABA. Between electrophysiological recordings, oocytes were perfused with buffer for at least 3 min to remove GABA (and drug, if present) and to allow receptors to recover from desensitization.
In these fits, the minimum was constrained to 5% (by definition, for EC5 evoked currents).

[5] = tested on: Sprague-Dawley rats; test: Myoclonic movements in rats, two-way crossover; assay type: in vivo, rat; settings: 3 mg/kg IV; for occurrence of myoclonus and LoRR: 30-minute observation, n=8
Method: Rats were immediately tested for LoRR and the number of myoclonic events was recorded during each 5-minute epoch for 30 minutes. A myoclonic event was defined as an unproductive (i.e., not associated with LoRR, feeding, or grooming behaviors) movement. Each distinct jerk or tremor constituted a single event. To avoid potentially confounding movements associated with bruxing, boggling, sniffing, and grooming, myoclonus was only considered to occur in the head and jaw when there was the presence of abnormal tongue lolling and jaw movement, or a sharp head movement out of sync with the rats breathing. At the end of the 30-minute observation period, rats were returned to their cages. After a 24-hour recovery period, each rat was crossed over to the other drug group and the experiment repeated.

[6] = biological target: T3, 11β-hydroxylase (Rattus norvegicus, UniProt P15393); test: Displacement of [3H]-etomidate from adrenal membranes; assay type: binding
T3 construct: tissue BioreclamationlVT; host or cells: membranes (homogenate pellet) from Sprague-Dawley rat adrenal glands
T3 sequence (P15393 25-499): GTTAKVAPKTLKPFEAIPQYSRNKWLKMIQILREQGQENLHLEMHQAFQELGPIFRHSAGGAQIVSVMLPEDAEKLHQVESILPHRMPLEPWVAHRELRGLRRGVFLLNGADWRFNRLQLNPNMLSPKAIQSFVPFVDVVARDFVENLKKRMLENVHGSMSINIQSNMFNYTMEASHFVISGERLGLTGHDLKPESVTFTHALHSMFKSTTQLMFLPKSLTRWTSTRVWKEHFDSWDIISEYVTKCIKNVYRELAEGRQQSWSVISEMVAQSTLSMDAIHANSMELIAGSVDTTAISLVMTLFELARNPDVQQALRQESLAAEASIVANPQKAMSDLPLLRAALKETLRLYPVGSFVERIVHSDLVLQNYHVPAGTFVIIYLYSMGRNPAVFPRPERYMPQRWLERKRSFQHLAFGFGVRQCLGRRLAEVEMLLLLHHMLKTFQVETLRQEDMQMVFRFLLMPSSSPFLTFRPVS
Method: Briefly, 4 adrenal glands were thawed for each preparation, placed on a glass stand, cut into pieces, and then added to ice-cold preparation buffer (HEPES 10 mM, EDTA 1 mM, leupeptin 10 μg/mL, chymostatin 10 μg/mL, pepstatin A 10 μg/mL, aprotinin 2 μg/mL, polymethanesulfonyl fluoride 1 mM and ethanol 10 μg/mL). After homogenization, carboxylesterases were inactivated by incubating with 1 mM diisopropyl fluorophosphate (Sigma-Aldrich) for 60 min. The mixture was then centrifuged and the resulting pellet was washed twice. The final pellet was then re-suspended in buffer by manual homogenization, passed through a 23-gauge needle three times, aliquoted into 1 mL eppendorf tubes, and stored at −80° C. until used. The protein concentration in these samples was quantified using a Pierce BCA Protein Assay Kit (ThermoFisher, Rockford, Ill., USA). All binding experiments were performed in glass vials at room temperature with the final concentration of protein adjusted to 0.07 mg/mL. The reported data were obtained using 3 separate preparations.
After equilibration, the mixture was passed through a pre-soaked (with 0.5% polyethylenimine in water for 2 h) 25 mm GF/B glass fiber filter under suction, the filter was immediately washed twice with 5 mL of assay buffer. After drying under a heat lamp for two hours, each filter was transferred to a scintillation vial. Liquiscint scintillation cocktail (National Diagnostics, Atlanta, Ga., USA) was added to the vial and the radioactivity in the vial quantified using a Packard Tri-Carb liquid scintillation counter (Meriden, Conn., USA). The concentration-response relationships for inhibition of [^3H]-etomidate by etomidate and dimethoxy-etomidate were fit to one and two site models, respectively, using Prism 6 for Mac OS X.

[7] = 50 mg/kg intravenous dose; cited from earlier work
[8] = 0.3 mg/kg IV, 15 min, vs vehicle control
[9] = 3 mg/kg IV, 15 min, vs vehicle control
[10] = 50 mg/kg IV, vs vehicle control

T2 sequence (P14867 28-456): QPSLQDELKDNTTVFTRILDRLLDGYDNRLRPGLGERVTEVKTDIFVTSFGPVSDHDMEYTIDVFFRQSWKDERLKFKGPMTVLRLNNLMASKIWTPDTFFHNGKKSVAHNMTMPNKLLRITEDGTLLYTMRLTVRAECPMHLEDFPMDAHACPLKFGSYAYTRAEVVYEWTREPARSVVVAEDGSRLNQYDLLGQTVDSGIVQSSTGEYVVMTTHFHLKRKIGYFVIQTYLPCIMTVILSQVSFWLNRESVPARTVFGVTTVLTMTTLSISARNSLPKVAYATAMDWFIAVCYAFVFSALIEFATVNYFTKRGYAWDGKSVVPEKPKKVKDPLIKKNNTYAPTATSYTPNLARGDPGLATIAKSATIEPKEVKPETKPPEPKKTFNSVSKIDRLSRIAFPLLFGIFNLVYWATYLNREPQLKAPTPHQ
T2 sequence (P28472 26-473): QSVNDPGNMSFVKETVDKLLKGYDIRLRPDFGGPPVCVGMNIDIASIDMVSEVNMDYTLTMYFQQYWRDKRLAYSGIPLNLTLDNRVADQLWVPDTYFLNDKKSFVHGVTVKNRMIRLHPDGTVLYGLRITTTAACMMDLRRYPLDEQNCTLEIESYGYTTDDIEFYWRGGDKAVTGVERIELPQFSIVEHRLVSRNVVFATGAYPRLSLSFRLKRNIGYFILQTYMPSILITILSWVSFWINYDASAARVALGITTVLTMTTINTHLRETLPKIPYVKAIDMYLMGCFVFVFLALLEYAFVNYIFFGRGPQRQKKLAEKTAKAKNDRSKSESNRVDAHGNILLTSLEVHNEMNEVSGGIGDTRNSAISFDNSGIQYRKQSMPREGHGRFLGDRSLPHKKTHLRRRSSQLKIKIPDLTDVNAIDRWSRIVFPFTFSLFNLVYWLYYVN
T2 sequence (P18507 40-475 partner): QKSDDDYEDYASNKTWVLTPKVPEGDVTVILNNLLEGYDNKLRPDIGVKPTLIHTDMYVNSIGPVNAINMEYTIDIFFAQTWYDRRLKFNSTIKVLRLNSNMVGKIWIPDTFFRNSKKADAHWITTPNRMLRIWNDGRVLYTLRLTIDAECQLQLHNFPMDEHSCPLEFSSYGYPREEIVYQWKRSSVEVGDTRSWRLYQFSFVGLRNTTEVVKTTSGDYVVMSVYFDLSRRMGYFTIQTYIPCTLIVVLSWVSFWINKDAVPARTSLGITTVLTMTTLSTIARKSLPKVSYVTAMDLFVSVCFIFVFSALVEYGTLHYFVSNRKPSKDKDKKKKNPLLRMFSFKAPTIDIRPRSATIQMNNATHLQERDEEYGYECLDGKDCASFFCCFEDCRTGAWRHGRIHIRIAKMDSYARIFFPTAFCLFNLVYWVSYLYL

Row | Structure (SMILES) | inhibition of adrenocortical steroid synthesis (FIG. 10) [1] | ED50 [3] [mg/kg] | dose producing loss of righting reflexes in all rats [3] [mg/kg] | maximum peak current at high drug concentrations, % of that produced by 1 mM GABA [4] [%] | occurrence of myoclonus and LoRR [5] | IC50 [6] [nM] | effect on ACTH-stimulated plasma 11-deoxycorticosterone concentration ([1]; 0.3 mg/kg IV) | effect on ACTH-stimulated plasma pregnenolone concentration ([1]; 0.3 mg/kg IV) | effect on ACTH-stimulated plasma progesterone concentration ([1]; 0.3 mg/kg IV) | reduction of ACTH-stimulated plasma corticosterone concentration [1, 8] | effect on ACTH-stimulated plasma 11-deoxycorticosterone concentration ([1]; 3 mg/kg IV) | effect on ACTH-stimulated plasma pregnenolone concentration ([1]; 3 mg/kg IV) | effect on ACTH-stimulated plasma progesterone concentration ([1]; 3 mg/kg IV) | ACTH-stimulated plasma corticosterone concentration ([1]; 3 mg/kg IV, 15 min) [ng/m] | reduction of ACTH-stimulated plasma corticosterone concentration [1, 9] [%] | also measured
1 | CCOC(=O)c1cncn1[C@H](C)c1cccc2ccccc12 [Example 4, ethyl (R)-1-(1-(naphthalen-1-yl)ethyl)-1H-imidazole-5-carboxylate] | similarly inhibited adrenocortical steroid synthesis | – | – | – | – | – | – | – | – | – | – | – | – | – | – | –
2 | CCOC(=O)c1cncn1[C@H](C)c1ccc2ccccc2c1 [Example 5, ethyl (R)-1-(1-(naphthalen-2-yl)ethyl)-1H-imidazole-5-carboxylate] | similarly inhibited adrenocortical steroid synthesis | – | – | – | – | – | – | – | – | – | – | – | – | – | – | –
3 | CCOC(=O)c1cccn1[C@H](C)c1ccccc1 [carboetomidate, ethyl (R)-1-(1-phenylethyl)-1H-pyrrole-2-carboxylate] | – | – | – | – | – | – | – | – | – | – | – | – | – | – | – | binding affinity to 11β-hydroxylase and adrenocortical inhibitory potency relative to etomidate [2]: reduced by three-orders of magnitude
4 | CCOC(=O)c1cncn1[C@H](C)c1cc(OC)cc(OC)c1 [dimethoxy-etomidate, Ethyl (R)-1-(1-(3,5-dimethoxyphenyl)ethyl)-1H-imidazole-5-carboxylate] | – | 72 ± 13 | 100 | 11 | produced no myoclonic events or LoRR in any rat | 7.9 | neither etomidate nor dimethoxy-etomidate altered | neither etomidate nor dimethoxy-etomidate altered | neither etomidate nor dimethoxy-etomidate altered | 63% | without significantly affecting | without significantly affecting | without significantly affecting | 19±10 | 87 | time required for righting reflexes to return (LoRR duration) ([3]; 100 mg/kg IV): 2.2 ± 0.7 min; sedative-hypnotic potency compared to etomidate ([3]; from LoRR ED50s): two order of magnitude reduction; EC50 [4]: 210000 nM; magnitude of peak current enhancement relative to that produced by the same concentration of etomidate ([4]; EC5 GABA evoked currents): ≤ ⅛; IC50 ([6]; read-out: IC50 for displacement of [3H]-etomidate, low affinity site, 2 nM [3H]-etomidate, two site fit): 4270 nM; high affinity site share of all sites ([6]; two site fit): 55%; ACTH-stimulated plasma corticosterone concentration ([1]; 0.3 mg/kg IV, 15 min): 56 ± 13 ng/mL; ACTH-stimulated plasma 11-deoxycorticosterone concentration ([1]; 50 mg/kg IV): 24 ± 12 ng/mL; ACTH-stimulated plasma corticosterone concentration ([1]; 50 mg/kg IV): 12 ± 1 ng/mL; effect on ACTH-stimulated plasma pregnenolone concentration ([1]; 50 mg/kg IV): unaffected; effect on ACTH-stimulated plasma progesterone concentration ([1]; 50 mg/kg IV): unaffected; reduction of ACTH-stimulated plasma 11-deoxycorticosterone concentration [1, 10]: 69%; reduction of ACTH-stimulated plasma corticosterone concentration [1, 10]: 95%
5 | CCOC(=O)c1cncn1[C@H](C)c1ccccc1 [etomidate, ethyl (R)-1-(1-phenylethyl)-1H-imidazole-5-carboxylate, reference compound] | – | 0.77 ± 0.17 | ≥ 1 | 103 | produced myoclonus and LORR in all rats | 21 | neither etomidate nor dimethoxy-etomidate altered | neither etomidate nor dimethoxy-etomidate altered | neither etomidate nor dimethoxy-etomidate altered | no significant effect | without significantly affecting | without significantly affecting | without significantly affecting | 19±11 | 87 | lethality [7]: lethal; time required for righting reflexes to return (LoRR duration) ([3]; 3 mg/kg IV, highest etomidate dose studied): 16.3 ± 0.5 min; maximum mean (±SEM) number of myoclonic events per rat ([5]; 5-10-minute epoch): 13.8±2.2; mean (±SEM) total number of myoclonic events in each rat ([5]; 30-minute observation period): 34±2.4

From US11098017B2, “Compounds for treating disorders associated with abnormal steroidogenesis” (The General Hospital Corporation, priority 2017, dated 2021)
